Experimental data from PubChem BioAssay AID2060892 (Molecular Pharmacology Branch, DTP, NCI, 2025).

Tested on: HOP-62 complex spheroids with HUVEC/MSC, viability
Experiment: Anticancer human tumor HOP-62 cell line growth inhibition [RAS];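 further: spheroids exposed to agents for seven days before readout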
Conditions: for IC50: curve of first compound; for viability, T/C: stronger effect = lower value; active means viability on the fitted dose curve at most 10% of control; inactive means the rest
Description: RAS pathway inhibitors in Combinations in Complex Spheroids
A high-throughput screen of multi-cell type tumor spheroids was designed to identify active combinations of RAS pathway inhibitors and targeted small molecules. Complex spheroids include a stromal component modeled by human endothelial cells (HUVEC) and fibroblasts modeled by human mesenchymal stem cells (MSCs). The concentration ranges selected for each drug and investigational agent were based upon clinically achievable concentrations if the clinical Cmax of the agent was known.
Compounds. The drugs and investigational agents: abemaciclib (NSC768073), cobimetinib (NSC768068), divarasib (GDC6063, NSC841802), docetaxel (NSC628503), GDC-1971 (RLY-1971, NSC841576), gemcitabine (NSC613327), inavolisib (NSC800729), ipatasertib (NSC767898), KB-0742 (NSC834161), MRTX-1133 (NSC836407), osimertinib (NSC779217), RMC-4630 (NSC839698), RMC-6236 (NSC851965), RMC-6291 (NSC852671), Ro-3306 (NSC812927), sapanisertib (NSC764658), SN-38 (NSC673596), staurosporine (NSC755774), SY5609 (NSC837396), and tovorafenib (DAY101, NSC766906), were obtained from the National Cancer Institute (NCI) Developmental Therapeutics Program Chemical Repository. The FDA-approved anticancer drug set is available from the NCI Developmental Therapeutics Program. […] The stock solutions were prepared in dimethyl sulfoxide (DMSO, Sigma-Aldrich, St. Louis, MO, cat. D2650) at 800-fold the tested concentration and stored at -70 degrees C prior to their use. All drugs and investigational agents were tested over a range starting from a high concentration at or near the clinical Cmax and decreasing in half-log increments. If the clinical Cmax for an agent had not been determined, the highest concentration tested was 10 microM.
Cell Culture. All cells were maintained in an incubator at 37 degrees C and 5% CO2 with 95% humidity. The PDC lines were cultured according to standard operating procedures established by the NCI PDMR. All PDCs were thawed and cultured in Matrigel-coated flasks prepared with a working solution of 1X Ham's F-12 nutrient mix, without supplementation (Invitrogen, Waltham, MA, cat. 11765054), 100 U/mL penicillin-streptomycin (Invitrogen, cat. 15140122), and 2.5% Matrigel (Corning Inc., Corning, NY, cat. 354248) for the first three passages. The 362531-283-R-J2-PDC and 782815-120-R-J1-PDC lines were cultured in 6C/Colon 1B media, which includes advanced DMEM/F-12 (Thermo Fisher Scientific, cat. 12634028), 10 mM HEPES (Thermo Fisher Scientific, cat. 15630080), 1X GlutaMAX supplement (Thermo Fisher Scientific, cat. 35050061), 0.1 mg/mL primocin (InvivoGen, San Diego, CA, cat. ant-pm-2), 10% defined fetal bovine serum, heat inactivated (HyClone Laboratories Inc., Logan, UT, cat. SH30070.03HI), 50% L-WRN conditioned media (ATCC, cat. CRL-3276), 1.25 mM N-Acetyl-L-cysteine (Sigma-Aldrich, cat. A9165), 10 mM nicotinamide (Sigma-Aldrich, cat. N0636), 1X B-27 supplement (Thermo Fisher Scientific, cat. 17504044), 1X N-2 supplement (Thermo Fisher Scientific, cat. 17502048), 50 ng/mL human EGF (Thermo Fisher Scientific, cat. PHG0311), and 10 microM Y-27632 dihydrochloride (Tocris Bioscience, cat. 1254). The K12877-001-R-J1-PDC line was cultured in 6I media, which includes all 6C/Colon 1B media plus 10 ng/mL human FGF-10 (PeproTech, cat. 100-26), 1 ng/mL human FGF-2 (PeproTech, cat. 100-18B), 1 µM prostaglandin E2 (Tocris Bioscience, cat. 2296), […] hydrocortisone (Sigma-Aldrich, cat. H4001), and […] bovine insulin (Sigma-Aldrich, cat. I6634). The K86415-001-R-J1-PDC line was cultured in 6D media, which includes all 6C/Colon 1B media components minus the L-WRN conditioned media. The 485176-168-R4-J1-PDC was cultured in PANC media, which includes all 6C/Colon 1B media plus 100 ng/mL human FGF-10 (PeproTech, cat. 100-26), 500 nM SB-431542 (Selleckchem, cat. S1067), and 10 nM gastrin (Tocris Bioscience, cat. 3006). […]

[1] = second compound 0.0316 µM, first compound 0.00316 µM
[2] = second compound 0.0316 µM, first compound 0.01 µM
[3] = second compound 0.0316 µM, first compound 0.0316 µM
[4] = second compound 0.0316 µM, first compound 0.1 µM
[5] = second compound 0.0316 µM, first compound 0.316 µM
[6] = second compound 0.0316 µM, first compound 1 µM
[7] = second compound 0.1 µM, first compound 0.00316 µM
[8] = second compound 0.1 µM, first compound 0.01 µM
[9] = second compound 0.1 µM, first compound 0.0316 µM
[10] = second compound 0.1 µM, first compound 0.1 µM
[11] = second compound 0.1 µM, first compound 0.316 µM
[12] = second compound 0.1 µM, first compound 1 µM
[13] = second compound 0.316 µM, first compound 0.00316 µM
[14] = second compound 0.316 µM, first compound 0.01 µM
[15] = second compound 0.316 µM, first compound 0.0316 µM
[16] = second compound 0.316 µM, first compound 0.1 µM
[17] = second compound 0.316 µM, first compound 0.316 µM
[18] = second compound 0.316 µM, first compound 1 µM
[19] = second compound 1 µM, first compound 0.00316 µM
[20] = second compound 1 µM, first compound 0.01 µM
[21] = second compound 1 µM, first compound 0.0316 µM
[22] = second compound 1 µM, first compound 0.1 µM
[23] = second compound 1 µM, first compound 0.316 µM
[24] = second compound 1 µM, first compound 1 µM
[25] = second compound 3.16 µM, first compound 0.00316 µM
[26] = second compound 3.16 µM, first compound 0.01 µM
[27] = second compound 3.16 µM, first compound 0.0316 µM
[28] = second compound 3.16 µM, first compound 0.1 µM
[29] = second compound 3.16 µM, first compound 0.316 µM
[30] = second compound 3.16 µM, first compound 1 µM
[31] = second compound 10 µM, first compound 0.00316 µM
[32] = second compound 10 µM, first compound 0.01 µM
[33] = second compound 10 µM, first compound 0.0316 µM
[34] = second compound 10 µM, first compound 0.1 µM
[35] = second compound 10 µM, first compound 0.316 µM
[36] = second compound 10 µM, first compound 1 µM

C=CC(=O)Nc1cc(Nc2nccc(-c3cn(C)c4ccccc34)n2)c(OC)cc1N(C)CCN(C)C + C#Cc1c(F)ccc2cc(O)cc(-c3ncc4c(N5CC6CCC(C5)N6)nc(OCC56CCCN5CC(F)C6)nc4c3F)c12
inactive: viability, T/C [1] 109% | viability, T/C [2] 105% | viability, T/C [3] 106% | viability, T/C [4] 109% | viability, T/C [5] 108% | viability, T/C [6] 93% | viability, T/C [7] 108% | viability, T/C [8] 114% | viability, T/C [9] 106% | viability, T/C [10] 100% | viability, T/C [11] 101% | viability, T/C [12] 90.4% | viability, T/C [13] 109% | viability, T/C [14] 102% | viability, T/C [15] 100% | viability, T/C [16] 112% | viability, T/C [17] 98% | viability, T/C [18] 83.6% | viability, T/C [19] 104% | viability, T/C [20] 105% | viability, T/C [21] 98.5% | viability, T/C [22] 93.2% | viability, T/C [23] 86.9% | viability, T/C [24] 75.1% | viability, T/C [25] 74.8% | viability, T/C [26] 74.3% | viability, T/C [27] 81% | viability, T/C [28] 81.8% | viability, T/C [29] 59.2% | viability, T/C [30] 38.9% | viability, T/C [31] 47.2% | viability, T/C [32] 45.9% | viability, T/C [33] 53% | viability, T/C [34] 40.4% | viability, T/C [35] 35.4% | viability, T/C [36] 29.5%
> 1000 nM: IC50 (second compound 0.0316 µM) | IC50 (second compound 0.1 µM) | IC50 (second compound 0.316 µM) | IC50 (second compound 1 µM)
535 nM: IC50 (second compound 3.16 µM)
< 3.16 nM: IC50 (second compound 10 µM)

O=C(c1ccc(F)c(F)c1Nc1ccc(I)cc1F)N1CC(O)([C@@H]2CCCCN2)C1 + C#Cc1c(F)ccc2cc(O)cc(-c3ncc4c(N5CC6CCC(C5)N6)nc(OCC56CCCN5CC(F)C6)nc4c3F)c12
106 nM: IC50 (second compound 1 µM)
42.1 nM: IC50 (second compound 3.16 µM)
122 nM: IC50 (second compound 0.0316 µM)
141 nM: IC50 (second compound 0.316 µM)
149 nM: IC50 (second compound 0.1 µM)
inactive: viability, T/C [1] 107% | viability, T/C [2] 113% | viability, T/C [3] 97.3% | viability, T/C [4] 54.2% | viability, T/C [5] 30.8% | viability, T/C [6] 25.2% | viability, T/C [7] 112% | viability, T/C [8] 114% | viability, T/C [9] 90.2% | viability, T/C [10] 61% | viability, T/C [11] 31.3% | viability, T/C [12] 24% | viability, T/C [13] 113% | viability, T/C [14] 108% | viability, T/C [15] 88.3% | viability, T/C [16] 58.1% | viability, T/C [17] 32.2% | viability, T/C [18] 26.8% | viability, T/C [19] 96.7% | viability, T/C [20] 95.7% | viability, T/C [21] 82% | viability, T/C [22] 50.1% | viability, T/C [23] 33.2% | viability, T/C [24] 25.3% | viability, T/C [25] 73.6% | viability, T/C [26] 63.6% | viability, T/C [27] 56.3% | viability, T/C [28] 36.5% | viability, T/C [29] 22.3% | viability, T/C [30] 18.3% | viability, T/C [31] 46.4% | viability, T/C [32] 47.9% | viability, T/C [33] 32.2% | viability, T/C [34] 23.9% | viability, T/C [35] 12.5% | viability, T/C [36] 11.7%
< 3.16 nM: IC50 (second compound 10 µM)
